From PubChem BioAssay (NCI)
Where “and” joins values, the source holds several entries; their conditions need not be identical. Identical values can stand only once.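 Five compound concentrations were applied to cells in 96-well plates for 48 hours; endpoints were derived by simple linear interpolation of the resulting dose-response curve. Here, GI50 denotes the concentration required for 50% inhibition of growth. TGI: concentration producing complete growth inhibition.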

Key:
Assay in all cases: growth of human tumour cells (NCI), 48 h
K-562 leukemia = test system: K-562 leukemia
CCRF-CEM leukemia = test system: CCRF-CEM leukemia
A549 NSCLC = test system: A549 NSCLC
NCI/ADR-RES ovarian = test system: NCI/ADR-RES ovarian
MCF7 breast = test system: MCF7 breast
HOP-92 NSCLC = test system: HOP-92 NSCLC
HCT-15 colon = test system: HCT-15 colon
OVCAR-4 ovarian = test system: OVCAR-4 ovarian
HL-60(TB) leukemia = test system: HL-60(TB) leukemia
KM12 colon = test system: KM12 colon

Compound | GI50 (K-562 leukemia) | TGI (K-562 leukemia) | GI50 (CCRF-CEM leukemia) | TGI (CCRF-CEM leukemia) | GI50 (A549 NSCLC) | TGI (A549 NSCLC) | TGI (NCI/ADR-RES ovarian) | TGI (MCF7 breast) | GI50 (HOP-92 NSCLC) | GI50 (HCT-15 colon) | TGI (HCT-15 colon) | TGI (OVCAR-4 ovarian) | GI50 (HL-60(TB) leukemia) [µM] | GI50 (NCI/ADR-RES ovarian) [µM] | GI50 (KM12 colon) [µM] | TGI (KM12 colon) | GI50 (MCF7 breast) [µM] | TGI (HOP-92 NSCLC) | GI50 (OVCAR-4 ovarian) [µM] | TGI (HL-60(TB) leukemia)
CC1[C@@H]2CC=C3[C@H]4CCC5Cc6nc7c(nc6C[C@@]5(C)C4(O)CC(=O)[C@]32CO[C@]12OC(C)(C)CC2O)CC1CC[C@@H]2C3=C[C@H]4O[C@@]5(O[C@@](C)(CO)C[C@@H]5O)C(C)[C@@]4(O)[C@]3(C)[C@@H](O)CC2[C@]1(C)C7 (stereo partly specified) | 0.000149 µM and 0.00112 µM | 0.021 µM and 0.0595 µM | 0.000126 µM and 0.000441 µM | 0.00723 µM and 0.0638 µM | 0.000294 µM and 0.00121 µM | 0.223 µM and 1.12 µM | > 3.6 µM | 0.441 µM | 0.000104 µM and 0.00036 µM | 0.00234 µM and 0.0127 µM | 0.0737 µM and 0.589 µM | > 3.6 µM | 0.00036 | – | – | – | – | – | – | –
Nc1nccc2c1ncn2C1OC(CO)C(O)C1O (stereo unspecified) | > 100 µM | > 100 µM | > 100 µM | > 100 µM | > 100 µM | > 100 µM | > 100 µM | > 100 µM | 92.2 µM | 75.8 µM | > 100 µM | > 100 µM | > 100 | > 100 | 54.5 | > 100 µM | 52 | > 100 µM | > 100 | > 100 µM
NS(=O)(=O)c1ccc(-n2ncc3c(Nc4ccccc4)ncnc32)cc1 | 4.44 µM | 37.7 µM | 17.7 µM | 92.5 µM | 14.3 µM | > 100 µM | 55.4 µM | > 100 µM | 23.6 µM | 19.1 µM | > 100 µM | > 100 µM | 6.59 | 19.5 | 9.63 | 46.7 µM | 49.2 | > 100 µM | 32.1 | 92.7 µM
O=C(N/N=C/c1ccc(Cl)cc1Cl)c1ccc2nc(-c3ccc(Cl)cc3)[nH]c2c1 | 0.969 µM | 3.23 µM | 1.43 µM | 9.03 µM | 2.16 µM | 4.53 µM | 4.44 µM | 2.56 µM | 1.67 µM | 1.42 µM | 3.03 µM | 3.29 µM | 1.85 | 1.83 | 2.03 | 4.46 µM | 1.15 | 3.53 µM | 1.74 | 6.53 µM
C[C@@H](COCCC(=O)N1CCN(c2ncc(C(F)(F)F)cn2)CC1)Nc1cn[nH]c(=O)c1C(F)(F)F | 36.9 µM | > 100 µM | 15 µM | > 100 µM | 45.7 µM | > 100 µM | > 100 µM | > 100 µM | 0.323 µM | > 100 µM | > 100 µM | > 100 µM | 16.1 | > 90.5 | > 100 | > 100 µM | 31.2 | > 65.7 µM | 27.8 | > 100 µM
O=C1c2ccccc2-c2c1c1ccc([N+](=O)[O-])cc1c(=O)n2CCCNCCO | 0.0359 µM | 1.24 µM | 0.023 µM | 1.09 µM | 0.946 µM | 8.75 µM | 3.19 µM | 1.31 µM | 0.0259 µM | 0.276 µM | 1.69 µM | 2.77 µM | 0.242 | 0.65 | 0.297 | 1.76 µM | – | 0.0899 µM | 0.492 | 1.52 µM
Cc1ccc2nc(-c3ccc(N)c4ccccc34)[nH]c2c1 | 0.763 µM | 39.7 µM | 0.0382 µM | 2.1 µM | 0.781 µM | > 46.2 µM | 3.53 µM | > 100 µM | 2.62 µM | < 0.0425 µM | 13.4 µM | > 100 µM | 0.102 | 0.0835 | 2.46 | 13.5 µM | 2.68 | 49.1 µM | 8.58 | 3.29 µM
Cc1nc2c(N3CCCC3)nc(N3CCNCC3)nc2nc1NCc1ccccc1 | 1.06 µM | 23.8 µM | 4.65 µM | 11 µM and 6.27 µM | 5.45 µM | 12.6 µM and 14.2 µM | 13.6 µM and 29 µM | 13.3 µM and 5.92 µM | – | 4.17 µM | 8.9 µM and 4.53 µM | 11.7 µM and 21.7 µM | 4.71 | 6.84 | 6.53 | 26.6 µM and 13.3 µM | 5.99 | 7.83 µM and 13.7 µM | 5.57 | 13.2 µM and 11.8 µM
CCC1(NC(=O)c2cc(F)c(F)c(F)c2F)C(=O)NC(=O)N(C(C)C)C1=O (stereo unspecified) | 3.54 µM | 19.3 µM | 19.8 µM | 75.3 µM | 50.7 µM | > 100 µM | 88.3 µM | > 100 µM | 17.4 µM | 8.05 µM | > 100 µM | > 100 µM | 3.82 | 31.8 | > 100 | > 100 µM | > 100 | 63.7 µM | > 100 | 24.9 µM
Cc1cc(N(CCCNc2ccnc3cc(Cl)ccc23)Cc2ccc3c(c2)OCO3)nc(N2CCCCC2)n1 | – | – | 2.92 µM | > 100 µM | 2.62 µM | 7.37 µM | 8.03 µM | 4.84 µM | 1.12 µM | 1.42 µM | 3.05 µM | 6.45 µM | – | 2.43 | 2.15 | 5.39 µM | 1.77 | 3.49 µM | 1.93 | –
Clc1ccc(CNc2nccc(-c3cnn4ncccc34)n2)cc1 | 10.6 µM | > 25 µM | 9.69 µM | > 25 µM | 7.66 µM | > 25 µM | > 25 µM | > 25 µM | – | 8.5 µM | > 25 µM | > 25 µM | 8.69 | 6.75 | 5.55 | 15.5 µM | 5.91 | – | 7.47 | > 22.3 µM
N#C/C(=C\c1c(-c2ccccc2)[nH]c2ccccc12)C(=O)c1ccccc1 | > 100 µM | > 100 µM | 7.27 µM | > 100 µM | 7.55 µM | > 100 µM | > 100 µM | > 100 µM | 4.51 µM | 3.53 µM | > 100 µM | > 100 µM | – | 3.11 | 1.96 | 19.4 µM | 3.95 | 28.7 µM | 65.3 | –
c1ccc(B2OCC(C3OB(c4ccccc4)OC4COB(c5ccccc5)OC43)O2)cc1 (stereo unspecified) | – | > 100 µM | – | > 100 µM | – | > 100 µM | > 100 µM | > 100 µM | – | – | > 100 µM | > 100 µM | – | – | – | > 100 µM | – | > 100 µM | – | –
Cc1ccc(Nc2cc(C)nc(NCCCNc3ccnc4cc(Cl)ccc34)n2)cc1 | – | – | 0.945 µM | 3.79 µM | 1.65 µM | 3.41 µM | 3.54 µM | 2.72 µM | 1.16 µM | 0.767 µM | 2.21 µM | 2.82 µM | 1.84 | 1.73 | 1.69 | 3.26 µM | 1.16 | 2.89 µM | 1.24 | 4.81 µM
CC(C)C[C@H](NC(=O)[C@H](Cc1cccc2ccccc12)NS(=O)(=O)c1cccc2cccnc12)B(O)O | 0.0094 µM | 0.163 µM | – | – | 0.0626 µM | > 28.9 µM | 17.7 µM | > 30.5 µM | 0.0299 µM | 0.13 µM | 0.403 µM | 0.173 µM | 0.000204 | – | 0.0178 | 0.114 µM and 0.179 µM | 0.000525 | 0.0547 µM and 0.0938 µM | – | –
CCc1ccc2nccc(NCCCN(C)C)c2c1[N+](=O)[O-] | – | > 100 µM | – | > 100 µM | – | > 100 µM | > 100 µM | > 100 µM | – | – | – | > 100 µM | – | – | – | > 100 µM | – | > 100 µM | – | > 100 µM
C=C(CNC(=O)c1ccccc1)c1ccc(C(=O)Nc2ccccc2N)cc1 | 1.26 µM | > 100 µM | 0.493 µM | 8.38 µM | 9.52 µM | > 100 µM | > 100 µM | > 100 µM | 1.15 µM | 8.14 µM | > 100 µM | > 100 µM | – | 2.35 | 5.11 | > 100 µM | 3.2 | > 100 µM | 11.6 | –
Fc1ccc2c(c1)C1=C(CO2)C(c2ccc(Cl)cc2)NC(=S)N1 (stereo unspecified) | 30.4 µM | > 100 µM | – | – | 33.2 µM | > 100 µM | 65.4 µM | 42.2 µM | 61 µM | 92.6 µM | > 100 µM | > 100 µM | 31.6 | 29.8 | 17.8 | 38.9 µM | 18.1 | > 100 µM | 51.9 | > 100 µM
O=S(=O)(NC1=NCCN1C(=S)SN1CCn2c1nsc2=S)c1ccccc1Cl | 4.62 µM | 46.3 µM | – | – | 32.5 µM | > 100 µM | > 100 µM | > 100 µM | 11 µM | 18.7 µM | 53 µM | > 100 µM | 0.342 | 27.7 | 17 | 42.8 µM | 11.5 | 89.7 µM | 15.6 | 8.62 µM
COc1c(Cl)ccc2c(-c3nc4cc(Cl)c(F)cc4s3)cc(=O)oc12 | 5.42 µM | > 100 µM | – | – | 17.9 µM | > 100 µM | > 100 µM | > 79 µM | 1.77 µM | 11.7 µM | 51 µM | 70.6 µM | 2.44 | 8.76 | 4.06 | 22.1 µM | 9.13 | 4.07 µM | 12.9 | 5.39 µM
